Where two headings read alike, the source gives them in different places.
Legend:
[1] = HPLC determination of partition coefficients in acetonitrile phase systems
Description: In these tests, known organic flavor volatile compounds were added to 2 ml aliquots of 50:50 acetonitrile:water, 22° C., in 4 ml HPLC vials, mixed thoroughly and capped with polytetrafluoroethylene septum caps. […] The samples were injected (20 uL) into a continuous HPLC apparatus. […] The HPLC apparatus was a Waters WISP model 710B sample injector, 6000A pump, and 481 UV detector set at 210 nm (Waters Associates, Milford, MA). A Radiomatic Flo-One Beta unit was used for peak integration (Radiomatic Instruments, Inc., Tampa FL). An Alltech adsorbosphere C18 column, 5 micron, 250 mm×4.6 mm was used (Alltech Associates, Deerfield, IL) to achieve component separation in accordance with conventional HPLC processing. The mobile phase had the following composition: 45% acetonitrile, 55% water, 0.2% KH2 PO4, pH 3.0. The flow rate was 1.0 ml/minute. The vials were then placed in a freezer (-20° C.) for one hour. 250 uL of the resulting organic and aqueous phases were then placed in a limited volume insert vial, the sample injected and peak integrations acquired. The partition coefficient, P, was calculated by dividing the organic phase by the aqueous phase integration values.
To determine the time period appropriate for complete partitioning, four sulfur volatiles and 1-methionine were treated as above, except that samples were taken at different times up to 60 minutes FIGS. 2a, 2b and 3).

[2] = Binary acetonitrile/water cold phase extraction of caffeine from cola beverage; format: physicochemical; settings: cola plus acetonitrile, -20° C. for 1 hour
Description: […]. The sample was shaken for 20 seconds and was chilled to -20° C. for 1 hour. 0.3 ml of the organic layer was then placed in an HPLC sampling vial. The HPLC system used was: a phenyl reversed phase column (Alltech Associates, Deerfield, Ill.) 250×4.6 mm, 5 micron. 25% acetonitrile, 75% water 0.2% w/v KH2 PO4, pH 3.0 mobile phase, 1.5 ml/min. flow rate 20 uL injection by the autosampler. UV detection at 210 nm.

[3] = Acetonitrile/water 1:1, 1 hr. at -20° C., organic phase divided by aqueous phase integration values
[4] = Acetonitrile/water/chloroform 5:5:1, 22° C., organic phase divided by aqueous phase integration values

Row | Partition Coefficient Ternary [1] | Partition Coefficient Binary ([1]; 60 min) | Structure (SMILES) | Partition Coefficient Binary [1, 3] | Partition Coefficient Ternary [1, 4] | extraction into the organic phase [2]
1 |  |  | S [Hydrogen sulfide] | 4.6 | 5.2 | 
2 |  |  | CCCCC(=O)OCC [Ethyl Valerate] | 25.9 | 25.6 | 
3 |  |  | CSCC[C@H](N)C(=O)O [1-methionine] | 0.03 | 0.2 | 
4 | 0.2 | 0.2 | O=C1O[C@H]([C@@H](O)CO)[C@@H](O)[C@@H]1O [1-galactono-1,4-lactone] |  |  | 
5 | 17.6 | 14.3 | CCCC(=O)OCC [Ethyl Butyrate] |  |  | 
6 |  |  | Cn1c(=O)c2c(ncn2C)n(C)c1=O [Caffeine] |  |  | selectively extracted into the organic phase
7 |  |  | N[C@@H](Cc1ccccc1)C(=O)O [1-phenylalanine] | 0.1 | 0.3 | 
8 |  |  | CCCCCCCC(=O)O [Caprylic acid] | 20.8 | 20.6 | 
9 | 2.3 | 3.3 | OCCc1ccccc1 [2-phenyl ethanol] |  |  | 
10 | 6.6 | 5.2 | CSC [Dimethyl sulfide] |  |  | 

Source: patent US4865991A, “Methods for partitioning of organic flavor compounds” (priority 1987, dated 1989)
